Laboratory results from patent US8410078B2, “Composition and methods to treat cardiac diseases” (University of Connecticut, priority 2006, dated 2013).

Legend:
intact CSQ mouse hearts = test: Cardiac function in intact CSQ mouse heart preparation
Experimental: Following injection of heparin via tail vein (500 U/kg, iv) and anesthetization with nembutal (125 mg/kg for rats and 150 mg/kg for mice, ip) intraperitoneally, heart with all major vessels and lungs attached were excised. The aorta was then cannulated with a 20-gauge catheter, positioned about 2 mm above the coronary ostia. For the Langendorff method, a water-filled latex balloon (size #3) was inserted into the lumen of the left ventricle via the left atrium. The distal end of the balloon attached catheter was connected to a pressure transducer for measurement of intraventricular pressure and ±dP/dt. The balloon was inflated to a constantly held diastolic pressure of 5-7 mmHg. […]
For the working heart model, a column of KHS buffer produced a constant hydrostatic pressure of 65 mmHg (for rat) or 55 mmHg (for mice). […] Aortic flow was the amount of perfusate exiting the aortic cannula measured in […]. […]
The pressure recordings were channeled from amplifiers which had been pre-calibrated by a transducer simulator/calibrator (Ken Scientific Corp., Litchfield, Conn.). […] Data were analyzed by computer software (WorkBench for Windows+, Kent Scientific Corp) designed for an IBM-compatible computer (Dell). […] Data obtained with and without drug were analyzed by paired t test for possible statistically significant differences. […]

cardiac P2X receptor = test: Whole-cell voltage clamp of P2 agonist-induced current in WT ventricular myocytes; format: cell-based, mouse
Excerpt: Mice displaying the CSQ model of severe cardiomyopathy and heart failure were bred and maintained by methods known in the art. The CSQ transgenic (TG) mice were originally provided by Dr. Larry Jones (Krannert Institute of Cardiology, Indiana University School of Medicine, Indiana), and developed hypertrophy followed by a lethal heart failure phenotype with death near the age of 3 months. Ventricular myocytes were obtained from 3-month old wild type (WT) and CSQ mice of either sex (26 WT, 47 TG) by an enzymatic dissociation procedure. Briefly, the hearts were rapidly excised from mice that had been anesthetized with pentobarbital and treated with 1000 Units of heparin. The aorta was cannulated and the heart perfused in a Langendorff apparatus with oxygenated (95% O2/5% CO2) Ca^2+-free solution (37° C.) for 5 minutes at a rate of 2.5 ml/min. The solution composition was: 126 mM NaCl, 4.4 mM KCl, 1.0 mM MgCl2, 18 mM NaHCO3, 11 mM Glucose, 4 mM HEPES, and 3 mM BDM (2,3-butanedione monoxime), (pH 7.3 adjusted with NaOH). Thereafter, the perfusing solution was changed to that containing 25 μM CaCl2 and liberase (70 μg/ml, Roche Molecular Biochemicals, Inc.) for 8-10 minutes. Cells were sedimented by gravity for 10-15 minutes and the pellet was resuspended in 200 μM Ca^2+-containing Tyrode's solution (containing 3 mM BDM), allowed to settle for 30 minutes at room temperature, and suspended with Tyrode's solution containing: 135 mM NaCl, 5.4 mM KCl, 1.0 mM CaCl2, 1.0 mM MgCl2, 10 mM HEPES and 10 mM dextrose (pH 7.4 adjusted with NaOH). The experiments were carried out at room temperature (22-23° C.) and were completed within 4-6 hours after myocyte isolation.
The whole cell patch-clamp technique was used for these experiments. Electrodes were prepared from borosilicate glass pipettes (1.2 mm i.d.) with a two step pulling procedure and filled with pipette solution. The pipette was connected via an Ag—AgCl wire to the head stage of an amplifier (List EPC-7, Medical Systems, Greenvale, N.Y.) controlled by a computer and Axon pClamp™ software. For voltage clamp experiments, the electrodes were filled with a solution containing: 135 mM cesium aspartate, 5 mM NaCl, 5 mM Mg2ATP, 10 mM HEPES, and 10 mM EGTA (pH 7.3 adjusted with CsOH) with or without 2 mM GDPβS. Electrode resistances were 2-4 MΩ. As soon as electrical contact was established, the superfusion medium was changed to a modified Tyrode's solution (5.4 mM KCl was omitted and 10 mM CsCl and 5 μM ouabain were added to Tyrode's solution to block K^+ currents and the Na/K pump current, respectively). In quantifying the P2 agonist-induced current, the Tyrode's solution contained the indicated concentration of each agent. In studying the effect of a P2 receptor antagonist, both agonist and antagonist were co-applied at the indicated concentrations. The voltage clamp protocol used was a ramp voltage protocol from −100 mV holding potential to +50 mV. The ramp protocol was applied to cells at 20 s intervals for 1 minute. Three current traces from −100 mV to 50 mV were averaged to construct the I-V relationship.

Nc1nc(Cl)nc2c1ncn2C1[C@H]2C[C@@]2(COP(=O)(O)O)[C@@H](O)[C@H]1O (stereo partly drawn) [MRS2339, (1′S,2′R,3′S,4′R,5′S)-4-(6-amino-2-chloro-9H-purin-9-yl)-1-[phosphoryloxymethyl]bicyclo[3.1.0]hexane-2,3-diol]
+dP/dt (intact CSQ mouse hearts): increased
Effect of GDPβS on MRS2339-evoked current density (cardiac P2X receptor; at +50 mV): no difference
MRS2339-evoked current density in the absence of GDPβS (cardiac P2X receptor; at −100 mV): −0.73±0.15 pA/pF
MRS2339-evoked current density with GDPβS (cardiac P2X receptor; at −100 mV): −0.66±0.10 pA/pF
